Where no end group is shown, it is not given here. The star is where a group is joined. Biotin = O=C1N[C@H]2[C@H](CS[C@H]2CCCCC(=O)*)N1
Assays:
[1] = test system: biotinylated IAPP 1-37 to the Kissorphin-6 peptide; assay type: binding, human
[2] = test system: biotinylated Aß 1-42 to the Kissorphin-6 peptide; assay type: binding, human
[3] = test system: biotinylated PrP 106-126 to the Kissorphin-6 peptide
Aß 1-42 fibrils = assay type: binding, human
IAPP 1-37 fibrils = assay type: binding, human
Amyloid-Bri fibrils = assay type: binding, human
Aß 25-35 fibrils = assay type: binding, human
IAPP 20-29 fibrils = assay type: binding, human
Amyloid-Dan fibrils = assay type: binding, human
[4] = test system: human neuroblastoma SH-SY5Y cell line; assay type: cell-based
[5] = test system: mouse LHRH secreting cell line (GT1); assay type: cell-based
[6] = target: GPR-54 G-protein coupled receptor (mouse) (UniProt Q91V45); assay: cell-based or functional assay
IAPP 1-37 = assay type: binding, human; conditions: 4°C 16 hours
Aß 1-42 = assay type: binding, human; conditions: 4°C 16 hours
[7] = target: T1, GPR-54 G-protein coupled receptor (mouse), Q91V45; assay: cell-based or functional assay
T1 chain: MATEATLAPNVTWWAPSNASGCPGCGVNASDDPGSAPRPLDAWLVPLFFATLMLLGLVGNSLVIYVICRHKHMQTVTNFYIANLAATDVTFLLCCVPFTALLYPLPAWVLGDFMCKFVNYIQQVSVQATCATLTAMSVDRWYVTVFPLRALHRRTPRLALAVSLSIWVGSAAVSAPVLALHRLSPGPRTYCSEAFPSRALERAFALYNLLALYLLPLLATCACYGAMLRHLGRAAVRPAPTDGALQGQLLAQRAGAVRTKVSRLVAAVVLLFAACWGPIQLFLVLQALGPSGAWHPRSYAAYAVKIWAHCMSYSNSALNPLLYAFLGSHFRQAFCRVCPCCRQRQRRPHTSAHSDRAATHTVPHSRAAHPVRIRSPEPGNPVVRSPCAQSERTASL

“Aß 1-28: Aß fragment, unlabelled competitor” was tested, and the “effect on binding of biotinylated IAPP 1-37 to the Kissorphin-6 peptide” value [1] was “no effect”, the “effect on binding of biotinylated Aß 1-42 to the Kissorphin-6 peptide” value [2] was “no effect” and the “effect on binding of biotinylated PrP 106-126 to the Kissorphin-6 peptide” value [3] was “no effect”.

In the case of “Aß 25-35: Aß fragment, functional neurotoxic domain (GSNKGAIIGLM)”, the “effect on binding of biotinylated IAPP 1-37 to the Kissorphin-6 peptide” value [1] is reported as “strongly inhibited”, the “effect on binding of biotinylated Aß 1-42 to the Kissorphin-6 peptide” value [2] is reported as “strongly inhibited” and the “effect on binding of biotinylated PrP 106-126 to the Kissorphin-6 peptide” value [3] is reported as “strongly inhibited”.

“Aß 29-40: Aß fragment, unlabelled competitor (GAIIGLMVGGVV; Amyloid-beta protein 40; UniProt P05067 700-711, looked up, fragment)” was tested, and the “effect on binding of biotinylated IAPP 1-37 to the Kissorphin-6 peptide” value [1] was “strongly inhibited”, the “effect on binding of biotinylated Aß 1-42 to the Kissorphin-6 peptide” value [2] was “strongly inhibited” and the “effect on binding of biotinylated PrP 106-126 to the Kissorphin-6 peptide” value [3] was “strongly inhibited”.

“Aß 31-35: Aß fragment, the shortest cytotoxic form of Aß (IIGLM; Amyloid-beta protein 40; UniProt P05067 702-706, looked up, fragment)” was tested, and the “effect on binding of biotinylated IAPP 1-37 to the Kissorphin-6 peptide” value [1] was “no effect”, the “effect on binding of biotinylated Aß 1-42 to the Kissorphin-6 peptide” value [2] was “no effect” and the “effect on binding of biotinylated PrP 106-126 to the Kissorphin-6 peptide” value [3] was “no effect”.

In the case of “Biotinylated Kisspeptin-10: N-terminally Biotinylated Kisspeptin-10, purchased from Bachem or Alpha Diagnostics”, the “binding to plates coated with Aß 1-42 fibrils” value (Aß 1-42 fibrils) is reported as “bound”, the “binding to plates coated with IAPP 1-37 fibrils” value (IAPP 1-37 fibrils) is reported as “bound” and the “binding to Amyloid-Bri fibrils” value (Amyloid-Bri fibrils) is reported as “No binding”. For the same molecule, the “binding to plates coated with Aß 25-35 fibrils” value (Aß 25-35 fibrils) was “bound”, the “binding to plates coated with PrP 118-135 fibrils” value (PrP 118-135 fibrils) was “bound” and the “binding to plates coated with IAPP 20-29 fibrils” value (IAPP 20-29 fibrils) was “bound”. For the same molecule, the “binding to plates coated with PrP 106-126 fibrils” value (PrP 106-126 fibrils) was “bound” and the “binding to Amyloid-Dan fibrils” value (Amyloid-Dan fibrils) was “No binding”.

With “Biotinylated Kisspeptin-54: N-terminally Biotinylated Kisspeptin-54, purchased from Bachem or Alpha Diagnostics (Biotin-GTSLSPPPESSGSPQQPGLSAPHSRQIPAPQGAVLVQREKDLPNYNWNSFGLRF; ends and bridges not checked; UniProt Q15726 68-121, looked up)” the “binding to plates coated with Aß 1-42 fibrils” value (Aß 1-42 fibrils) was “bound”, the “binding to plates coated with IAPP 1-37 fibrils” value (IAPP 1-37 fibrils) was “bound” and the “binding to Amyloid-Bri fibrils” value (Amyloid-Bri fibrils) was “No binding”. For the same molecule, the “binding to plates coated with Aß 25-35 fibrils” value (Aß 25-35 fibrils) was “bound”, the “binding to plates coated with PrP 118-135 fibrils” value (PrP 118-135 fibrils) was “bound” and the “binding to plates coated with IAPP 20-29 fibrils” value (IAPP 20-29 fibrils) was “bound”. For the same molecule, the “binding to plates coated with PrP 106-126 fibrils” value (PrP 106-126 fibrils) was “bound” and the “binding to Amyloid-Dan fibrils” value (Amyloid-Dan fibrils) was “No binding”.

For “Kissorphin-6 (3-6): shorter sequence, SEQ ID No. 11, residues 3-6 of Kissorphin-6 (WNSF)”, the “effect on toxicity of Aß 1-42” value [4] was “significantly inhibited”, the “effect on toxicity of Aß 25-35” value [4] was “significantly inhibited” and the “effect on toxicity of IAPP 1-37” value [4] was “no effect”. The “effect on toxicity of IAPP 20-29” value [4] was “no effect”, the “effect on toxicity of PrP 106-126” value [4] was “no effect” and the “effect on toxicity of PrP 118-135” value [4] was “no effect”. For the same molecule, the “effect on toxicity of the Amyloid-Bri peptide” value [4] was “unaffected”, the “effect on toxicity of the Amyloid-Dan peptide” value [4] was “unaffected” and the “effect on Kisspeptin-10 stimulated release of immunoreactive LHRH” value [5] was “no significant effect”. The “effect on Kisspeptin-13 stimulated release of immunoreactive LHRH” value [5] was “no significant effect”.

Kisspeptin-10 (peptide) showed an LHRH release from mouse GT1 cells [6] of 4 fold.

“Kisspeptin-54 (27-54): fragment 27-54 of Kisspeptin-54 (IPAPQGAVLVQREKDLPNYNWNSFGLRF)” was tested, and the “binding of biotinylated IAPP 1-37 to peptide coated plates” value (IAPP 1-37) was “significant binding”, the “binding of biotinylated Aß 1-42 to peptide coated plates” value (Aß 1-42) was “significant binding” and the “effect on toxicity of Aß 1-42” value [4] was “significantly inhibited”. The “effect on toxicity of Aß 25-35” value [4] was “significantly inhibited”, the “effect on toxicity of IAPP 1-37” value [4] was “significantly inhibited” and the “effect on toxicity of IAPP 20-29” value [4] was “significantly inhibited”. The “effect on toxicity of PrP 106-126” value [4] was “significantly inhibited”, the “effect on toxicity of PrP 118-135” value [4] was “significantly inhibited” and the “effect on toxicity of the Amyloid-Bri peptide” value [4] was “unaffected”. For the same molecule, the “effect on toxicity of the Amyloid-Dan peptide” value [4] was “unaffected” and the “binding of biotinylated PrP 106-126 to peptide coated plates” value (PrP 106-126) was “significant binding”.

“Kisspeptin-54: the 54 amino acid form of Kisspeptin, peptide derived from the Kiss1 gene, ligand for GPR-54 (SEQ ID No. 1)” was tested, and the “binding of biotinylated IAPP 1-37 to peptide coated plates” value (IAPP 1-37) was “significant binding”, the “binding of biotinylated Aß 1-42 to peptide coated plates” value (Aß 1-42) was “significant binding” and the “effect on toxicity of Aß 1-42” value [4] was “significantly inhibited”. The “effect on toxicity of Aß 25-35” value [4] was “significantly inhibited”, the “effect on toxicity of IAPP 1-37” value [4] was “significantly inhibited” and the “effect on toxicity of IAPP 20-29” value [4] was “significantly inhibited”. The “effect on toxicity of PrP 106-126” value [4] was “significantly inhibited”, the “effect on toxicity of PrP 118-135” value [4] was “significantly inhibited” and the “effect on toxicity of the Amyloid-Bri peptide” value [4] was “unaffected”. For the same molecule, the “effect on toxicity of the Amyloid-Dan peptide” value [4] was “unaffected” and the “binding of biotinylated PrP 106-126 to peptide coated plates” value (PrP 106-126) was “significant binding”.

For KTNMKHMAGAAAAGAVVGGLG (modifications not checked) [PrP 106-126], the Kd (Kissorphin-6 (human)) was 34.2 nM.

Work on LPNYNWNSFGLRF (modifications not checked) [Kisspeptin-13, Q15726 109-121] yielded an LHRH release from mouse GT1 cells [7] of 4 fold.

For KCNTATCATQRLANFLVHSSNNFGAILSSTNVGSNTY (modifications not checked) [IAPP 1-37], the Kd (Kissorphin-6 (human)) was 11.6 nM.

From patent EP2388012A1 (Roehampton University, priority 2010, dated 2011)
